{
  "source": "paper PMC5218480",
  "about": "(PLoS ONE, 2017)",
  "tested_on": "MV-4-11 cells",
  "assay": "Gene expression microarray analysis (Affymetrix PrimeView) and GSEA",
  "type": "cell-based, human",
  "design": "RFU PODN (11730768_x_at) / Fold change /veh PODN (11730768_x_at) / RFU LINC00158 (11744669_a_at) / Fold change /veh LINC00158 (11744669_a_at) / RFU DUSP10 (11751237_a_at) / Fold change /veh DUSP10 (11751237_a_at) / RFU ID3 (11757404_x_at) / Fold change /veh ID3 (11757404_x_at) / RFU PLEKHG5 (11737974_s_at) / Fold change /veh PLEKHG5 (11737974_s_at) / RFU LRRC4B (11730491_at) / Fold change /veh LRRC4B (11730491_at) / RFU GIMAP4 (11747438_a_at) / Fold change /veh GIMAP4 (11747438_a_at) / RFU KRT8 (11758183_x_at) / Fold change /veh KRT8 (11758183_x_at) / RFU CNN1 (11734310_a_at) / Fold change /veh CNN1 (11734310_a_at) / RFU VPS37D (11726825_at) / Fold change /veh VPS37D (11726825_at) / RFU C10orf10 (11716522_x_at) / Fold change /veh C10orf10 (11716522_x_at) / RFU KIR2DL2 /// KIR2DL4 /// KIR2DL5A /// KIR2DL5B /// KIR2DS1 /// KIR2DS2 /// KIR2DS3 /// KIR2DS4 /// KIR3DL3 /// KIR3DL3 /// KIR3DS1 (11738374_at) / Fold change /veh KIR2DL2 /// KIR2DL4 /// KIR2DL5A /// KIR2DL5B /// KIR2DS1 /// KIR2DS2 /// KIR2DS3 /// KIR2DS4 /// KIR3DL3 /// KIR3DL3 /// KIR3DS1 (11738374_at) / RFU C1QL1 (11718748_at) / Fold change /veh C1QL1 (11718748_at) / RFU TMPRSS4 (11747572_a_at) / Fold change /veh TMPRSS4 (11747572_a_at) / RFU HAMP (11756126_x_at) / Fold change /veh HAMP (11756126_x_at) / RFU RNFT2 (11725882_a_at) / Fold change /veh RNFT2 (11725882_a_at) / RFU NR4A2 (11747474_a_at) / Fold change /veh NR4A2 (11747474_a_at) / RFU ABCC12 (11746883_a_at) / Fold change /veh ABCC12 (11746883_a_at) / RFU TMEM136 (11760407_x_at) / Fold change /veh TMEM136 (11760407_x_at) / RFU CLDN22 /// WWC2 (11732394_at) / Fold change /veh CLDN22 /// WWC2 (11732394_at) / RFU HLA-DPB1 (11760878_x_at) / Fold change /veh HLA-DPB1 (11760878_x_at) / RFU SPINT1 (11716480_a_at) / Fold change /veh SPINT1 (11716480_a_at) / RFU GAP43 (11754022_s_at) / Fold change /veh GAP43 (11754022_s_at) / RFU A4GNT (11735810_at) / Fold change /veh A4GNT (11735810_at) / RFU PRB3 (11715151_x_at) / Fold change /veh PRB3 (11715151_x_at) / RFU TUBB4B (11761932_at) / Fold change /veh TUBB4B (11761932_at) / RFU CAPN14 (11732068_a_at) / Fold change /veh CAPN14 (11732068_a_at) / RFU TMCC2 (11721928_a_at) / Fold change /veh TMCC2 (11721928_a_at) / RFU IRGQ (11745062_a_at) / Fold change /veh IRGQ (11745062_a_at) / RFU FAM174B (11720279_a_at) / Fold change /veh FAM174B (11720279_a_at) / RFU TMPRSS4 (11748680_a_at) / Fold change /veh TMPRSS4 (11748680_a_at) / RFU FAM212B (11763350_a_at) / Fold change /veh FAM212B (11763350_a_at) / RFU PLEKHG5 (11743358_a_at) / Fold change /veh PLEKHG5 (11743358_a_at) / RFU ZSCAN30 (11745921_a_at) / Fold change /veh ZSCAN30 (11745921_a_at) / RFU CMKLR1 (11741424_a_at) / Fold change /veh CMKLR1 (11741424_a_at) / RFU LOC101060620 /// MAPK8IP1 (11723275_at) / Fold change /veh LOC101060620 /// MAPK8IP1 (11723275_at) / RFU SPTSSB (11747773_x_at) / Fold change /veh SPTSSB (11747773_x_at) / RFU PRSS12 (11739890_at) / Fold change /veh PRSS12 (11739890_at) / RFU BIN1 (11741810_x_at) / Fold change /veh BIN1 (11741810_x_at) / RFU WNT11 (11732464_a_at) / Fold change /veh WNT11 (11732464_a_at) / RFU C10orf10 (11716521_a_at) / Fold change /veh C10orf10 (11716521_a_at) / RFU C5orf56 (11738089_at) / Fold change /veh C5orf56 (11738089_at) / RFU CYB561 (11721691_x_at) / Fold change /veh CYB561 (11721691_x_at) / RFU ANKRD19P (11752326_a_at) / Fold change /veh ANKRD19P (11752326_a_at) / RFU OR2T12 /// OR2T33 /// OR2T8 (11738714_s_at) / Fold change /veh OR2T12 /// OR2T33 /// OR2T8 (11738714_s_at) / RFU VCAN (11748164_a_at) / Fold change /veh VCAN (11748164_a_at) / RFU JSRP1 (11732532_at) / Fold change /veh JSRP1 (11732532_at) / RFU KRTAP10-11 (11738290_x_at) / Fold change /veh KRTAP10-11 (11738290_x_at) / RFU MYO3A (11730013_a_at) / Fold change /veh MYO3A (11730013_a_at) / RFU EBF3 (11725865_a_at) / Fold change /veh EBF3 (11725865_a_at) / RFU CAMK2N1 (11719241_x_at) / Fold change /veh CAMK2N1 (11719241_x_at) / RFU C5orf56 (11738088_a_at) / Fold change /veh C5orf56 (11738088_a_at) / RFU OLFML3 (11715873_a_at) / Fold change /veh OLFML3 (11715873_a_at) / RFU LOC100653217 /// NTM (11731650_a_at) / Fold change /veh LOC100653217 /// NTM (11731650_a_at) / RFU MAPK11 (11762145_a_at) / Fold change /veh MAPK11 (11762145_a_at) / RFU FIZ1 (11724087_x_at) / Fold change /veh FIZ1 (11724087_x_at) / RFU OASL (11726364_x_at) / Fold change /veh OASL (11726364_x_at) / RFU SOX15 (11748057_x_at) / Fold change /veh SOX15 (11748057_x_at) / RFU CD79A (11719716_a_at) / Fold change /veh CD79A (11719716_a_at) / RFU HIST1H1D (11736915_at) / Fold change /veh HIST1H1D (11736915_at) / RFU CASKIN2 (11723855_a_at) / Fold change /veh CASKIN2 (11723855_a_at) / RFU LOC730098 (11760151_x_at) / Fold change /veh LOC730098 (11760151_x_at) / RFU OR4N2 (11742367_at) / Fold change /veh OR4N2 (11742367_at) / RFU PRRT2 (11749266_a_at) / Fold change /veh PRRT2 (11749266_a_at) / RFU SNX32 (11753110_a_at) / Fold change /veh SNX32 (11753110_a_at) / RFU CDHR5 (11726645_a_at) / Fold change /veh CDHR5 (11726645_a_at) / RFU RCAN1 (11760418_a_at) / Fold change /veh RCAN1 (11760418_a_at) / RFU FAM167A (11723789_a_at) / Fold change /veh FAM167A (11723789_a_at) / RFU FAM26E (11764081_at) / Fold change /veh FAM26E (11764081_at) / RFU ISYNA1 (11749810_s_at) / Fold change /veh ISYNA1 (11749810_s_at) / RFU ACY1 (11761880_at) / Fold change /veh ACY1 (11761880_at) / RFU 11764098_at / Fold change /veh 11764098_at / RFU SAMD14 (11745864_x_at) / Fold change /veh SAMD14 (11745864_x_at) / RFU NPB (11741838_a_at) / Fold change /veh NPB (11741838_a_at) / RFU TMPRSS6 (11731388_a_at) / Fold change /veh TMPRSS6 (11731388_a_at) / RFU KRTAP10-2 (11738614_at) / Fold change /veh KRTAP10-2 (11738614_at) / RFU ARHGAP8 /// PRR5-ARHGAP8 (11727945_x_at) / Fold change /veh ARHGAP8 /// PRR5-ARHGAP8 (11727945_x_at) / RFU KRTAP5-7 /// NADSYN1 (11734609_at) / Fold change /veh KRTAP5-7 /// NADSYN1 (11734609_at) / RFU RASL12 (11751679_a_at) / Fold change /veh RASL12 (11751679_a_at) / RFU CDKN2B (11736163_a_at) / Fold change /veh CDKN2B (11736163_a_at) / RFU PRF1 (11729649_at) / Fold change /veh PRF1 (11729649_at) / RFU, ZNF638 /// ZNF638-IT1 / Fold change vs veh, ZNF638 /// ZNF638-IT1 / RFU, PANK3 / Fold change vs veh, PANK3 / RFU, SH3YL1 / Fold change vs veh, SH3YL1 / RFU, ZEB2 / Fold change vs veh, ZEB2 / RFU, NRIP1 / Fold change vs veh, NRIP1 / RFU, PTTG1IP / Fold change vs veh, PTTG1IP / RFU, CAPN2 / Fold change vs veh, CAPN2 / RFU, MED14 / Fold change vs veh, MED14 / RFU, SNORA58 / Fold change vs veh, SNORA58 / RFU, C1orf63 / Fold change vs veh, C1orf63 / RFU, LRRFIP1 / Fold change vs veh, LRRFIP1 / RFU, NDUFAF7 / Fold change vs veh, NDUFAF7 / RFU, SLC12A2 / Fold change vs veh, SLC12A2 / RFU, IBTK / Fold change vs veh, IBTK / RFU, ESF1 / Fold change vs veh, ESF1 / Fold change vs veh, TMEM50B / RFU, TAOK1 / Fold change vs veh, TAOK1 / RFU, ACBD3 / Fold change vs veh, ACBD3 / RFU, TMA16 / Fold change vs veh, TMA16 / RFU, RWDD3 / Fold change vs veh, RWDD3 / RFU, BCAT1 / Fold change vs veh, BCAT1 / RFU, EDEM3 / Fold change vs veh, EDEM3 / RFU, TMEM33 / Fold change vs veh, TMEM33 / RFU, WDR75 / Fold change vs veh, WDR75 / RFU, AHCTF1 / Fold change vs veh, AHCTF1 / RFU, TFRC / Fold change vs veh, TFRC / RFU, ZDHHC17 / Fold change vs veh, ZDHHC17 / RFU, NOM1 / Fold change vs veh, NOM1 / RFU, ARL8B / Fold change vs veh, ARL8B / RFU, ZBTB11 / Fold change vs veh, ZBTB11 / RFU, TAMM41 / Fold change vs veh, TAMM41 / RFU, KIAA1704 /// LOC100996395 / Fold change vs veh, KIAA1704 /// LOC100996395 / RFU, ING1 / Fold change vs veh, ING1 / RFU, TRMT61B / Fold change vs veh, TRMT61B / RFU, FUBP3 / Fold change vs veh, FUBP3 / RFU, TP53 / Fold change vs veh, TP53 / RFU, TNKS2 / Fold change vs veh, TNKS2 / RFU, ZFP14 / Fold change vs veh, ZFP14 / RFU, ACTR2 / Fold change vs veh, ACTR2 / RFU, PPP3R1 / Fold change vs veh, PPP3R1 / RFU, PIK3R1 / Fold change vs veh, PIK3R1 / RFU, HNRNPA1 / Fold change vs veh, HNRNPA1 / RFU, RNF170 / Fold change vs veh, RNF170 / RFU, ZNF28 / Fold change vs veh, ZNF28 / RFU, RNGTT / Fold change vs veh, RNGTT / RFU, OGT / Fold change vs veh, OGT / RFU, BRD1 / Fold change vs veh, BRD1 / RFU, MARS / Fold change vs veh, MARS / RFU, ZNF655 / Fold change vs veh, ZNF655 / RFU, FAHD1 / Fold change vs veh, FAHD1 / RFU, BDP1 / Fold change vs veh, BDP1 / RFU, LRRCC1 / Fold change vs veh, LRRCC1 / RFU, ARID1A / Fold change vs veh, ARID1A / RFU, ZNF146 / Fold change vs veh, ZNF146 / RFU, ZNF330 / Fold change vs veh, ZNF330 / RFU, GPN3 / Fold change vs veh, GPN3 / RFU, C9orf123 / Fold change vs veh, C9orf123 / RFU, N4BP2L2 / Fold change vs veh, N4BP2L2 / RFU, ARFIP1 / Fold change vs veh, ARFIP1 / RFU, FAM179B / Fold change vs veh, FAM179B / RFU, BCL10 / Fold change vs veh, BCL10 / RFU, UHRF1BP1L / Fold change vs veh, UHRF1BP1L / RFU, BET1 / Fold change vs veh, BET1 / RFU, CNOT2 / Fold change vs veh, CNOT2 / RFU, ZNF268 / Fold change vs veh, ZNF268 / Fold change vs veh, ZNF507 / RFU, DGCR2 / Fold change vs veh, DGCR2 / RFU, WDSUB1 / Fold change vs veh, WDSUB1 / Fold change vs veh, HSP90B1 /// MIR3652 / RFU, ADSS / Fold change vs veh, ADSS / RFU, GK / Fold change vs veh, GK / RFU, ZNF148 / Fold change vs veh, ZNF148 / RFU, TAF9 / Fold change vs veh, TAF9 / RFU, SLC1A5 / Fold change vs veh, SLC1A5 / RFU, SLMO2 / Fold change vs veh, SLMO2 / RFU, ABCC4 / Fold change vs veh, ABCC4 / RFU, LOC101060439 /// RAP1B / Fold change vs veh, LOC101060439 /// RAP1B / RFU, RFX7 / Fold change vs veh, RFX7 / RFU, GTPBP10 / Fold change vs veh, GTPBP10 / RFU, CNEP1R1 / Fold change vs veh, CNEP1R1 / RFU, BIVM-ERCC5 /// ERCC5 / Fold change vs veh, BIVM-ERCC5 /// ERCC5 / RFU, ILF3 / Fold change vs veh, ILF3 / RFU 11762660_at / Fold change /veh 11762660_at / RFU VCAN (11757783_s_at) / Fold change /veh VCAN (11757783_s_at) / RFU DDX43 (11728927_at) / Fold change /veh DDX43 (11728927_at) / RFU KRT8 (11758188_x_at) / Fold change /veh KRT8 (11758188_x_at) / RFU NKD1 (11759106_at) / Fold change /veh NKD1 (11759106_at) / RFU SRD5A1 (11742802_a_at) / Fold change /veh SRD5A1 (11742802_a_at) / RFU TPSAB1 /// TPSB2 (11721975_s_at) / Fold change /veh TPSAB1 /// TPSB2 (11721975_s_at) / RFU GSTM3 (11746129_a_at) / Fold change /veh GSTM3 (11746129_a_at) / RFU IL23R (11737362_x_at) / Fold change /veh IL23R (11737362_x_at) / RFU TMEM51 (11727254_a_at) / Fold change /veh TMEM51 (11727254_a_at) / RFU PIWIL2 (11732686_x_at) / Fold change /veh PIWIL2 (11732686_x_at) / RFU ORM1 (11744905_x_at) / Fold change /veh ORM1 (11744905_x_at) / RFU CCDC152 (11743942_at) / Fold change /veh CCDC152 (11743942_at) / RFU ECM1 (11717891_a_at) / Fold change /veh ECM1 (11717891_a_at) / RFU IL23R (11748794_a_at) / Fold change /veh IL23R (11748794_a_at) / RFU TNFAIP8L3 (11732012_x_at) / Fold change /veh TNFAIP8L3 (11732012_x_at) / RFU MBOAT4 (11741988_at) / Fold change /veh MBOAT4 (11741988_at) / RFU 11764193_at / Fold change /veh 11764193_at / RFU TMEM53 (11763286_at) / Fold change /veh TMEM53 (11763286_at) / RFU MAGEB2 (11727129_at) / Fold change /veh MAGEB2 (11727129_at) / RFU TMEM200A (11744735_a_at) / Fold change /veh TMEM200A (11744735_a_at) / RFU CCDC152 (11751479_a_at) / Fold change /veh CCDC152 (11751479_a_at) / RFU FAM211A (11726209_a_at) / Fold change /veh FAM211A (11726209_a_at) / RFU RGS16 (11746705_a_at) / Fold change /veh RGS16 (11746705_a_at) / RFU VCAN (11755009_s_at) / Fold change /veh VCAN (11755009_s_at) / RFU RHOB (11743442_s_at) / Fold change /veh RHOB (11743442_s_at) / RFU RGS16 (11720943_a_at) / Fold change /veh RGS16 (11720943_a_at) / RFU RGS16 (11720944_at) / Fold change /veh RGS16 (11720944_at) / RFU, VPS4B / Fold change vs veh, VPS4B / RFU, CREB1 / Fold change vs veh, CREB1 / RFU, DNAJC13 / Fold change vs veh, DNAJC13 / RFU, GNAQ / Fold change vs veh, GNAQ / RFU, CDK5R1 / Fold change vs veh, CDK5R1 / RFU, ZRANB3 / Fold change vs veh, ZRANB3 / RFU, CUL4A / Fold change vs veh, CUL4A / RFU, CCNY / Fold change vs veh, CCNY / RFU, UFL1 / Fold change vs veh, UFL1 / RFU, COG3 / Fold change vs veh, COG3 / RFU, DIAPH2 / Fold change vs veh, DIAPH2 / RFU, SKA2 / Fold change vs veh, SKA2 / RFU, AFF3 / Fold change vs veh, AFF3 / RFU, LMF1 / Fold change vs veh, LMF1 / RFU, IPO11 / Fold change vs veh, IPO11 / RFU, DFFB / Fold change vs veh, DFFB / RFU, FOXP1 / Fold change vs veh, FOXP1 / RFU, CARD8 / Fold change vs veh, CARD8 / RFU, STRN3 / Fold change vs veh, STRN3 / RFU, ADK / Fold change vs veh, ADK / RFU, RASSF2 / Fold change vs veh, RASSF2 / RFU, WIPF1 / Fold change vs veh, WIPF1 / RFU, LARP1B / Fold change vs veh, LARP1B / RFU, RASA1 / Fold change vs veh, RASA1 / RFU, RB1 / Fold change vs veh, RB1 / RFU, PPFIA1 / Fold change vs veh, PPFIA1 / RFU, MAT2A / Fold change vs veh, MAT2A / RFU, CCT5 / Fold change vs veh, CCT5 / RFU, WDR92 / Fold change vs veh, WDR92 / RFU, CUX1 / Fold change vs veh, CUX1 / RFU, TTC7A / Fold change vs veh, TTC7A / RFU, TMEM135 / Fold change vs veh, TMEM135 / RFU, DEPTOR / Fold change vs veh, DEPTOR / RFU, CPM / Fold change vs veh, CPM / RFU, DNAJB6 / Fold change vs veh, DNAJB6 / RFU, CACNA2D3 / Fold change vs veh, CACNA2D3 / RFU, DTX4 / Fold change vs veh, DTX4 / RFU, TFCP2 / Fold change vs veh, TFCP2 / RFU, GMCL1 /// GMCL1P1 / Fold change vs veh, GMCL1 /// GMCL1P1 / RFU, AEBP2 / Fold change vs veh, AEBP2 / RFU, SNHG1 /// SNORD22 /// SNORD25 /// SNORD26 /// SNORD27 /// SNORD28 /// SNORD29 /// SNORD31 / Fold change vs veh, SNHG1 /// SNORD22 /// SNORD25 /// SNORD26 /// SNORD27 /// SNORD28 /// SNORD29 /// SNORD31 / Fold change (Aza/veh), C12orf56 (ProbeSet 11735607_a_at) / Fold change (ACY-1035/veh), C12orf56 (ProbeSet 11735607_a_at) / Fold change (Aza/veh), FGFR1OP (ProbeSet 11751329_s_at) / Fold change (ACY-1035/veh), FGFR1OP (ProbeSet 11751329_s_at) / Fold change (Aza/veh), VPS36 (ProbeSet 11739960_a_at) / Fold change (ACY-1035/veh), VPS36 (ProbeSet 11739960_a_at) / RFU SYPL1 (11715823_x_at) / Fold change /veh SYPL1 (11715823_x_at) / RFU IGFBP7 (11715501_s_at) / Fold change /veh IGFBP7 (11715501_s_at) / RFU REEP3 (11722064_at) / Fold change /veh REEP3 (11722064_at) / RFU IGLL1 (11728026_x_at) / Fold change /veh IGLL1 (11728026_x_at): dose or concentration left out as unconfirmed",
  "conditions": "MV-4-11 cells, 48 hours",
  "data": [
    {"smiles": "Nc1ccc(-c2cccs2)cc1NC(=O)c1ccc2c(c1)cc(C1CC1)n2CCN1CCOCC1", "note": "[ACY-1035]", "values": [
      {"measurement": "RFU PIWIL2 (11732686_x_at)", "value": 9.71, "unit": "RFU"}
    ]}
  ]
}
